Measured values reported in patent US20020168365A1, “Method for modulating granzyme B uptake and for identifying modulators thereof” (priority 2000, published 2002).

Experiments:
Jurkat cells [1] = assay: GrB binding assay (flow cytometry, labeled grB at 4° C.); parameters: species or system human; conditions: for effect on grB binding: monosaccharide with labeled grB, 4° C. (FIG. 3A)
Experimental: Cells (1-2×10^5) were washed twice and resuspended in buffer before the addition of grB-biotin or -OG in a final volume of 20 μl for a 30-60 min incubation and washed again twice. In the case of grB-biotin, cells were then incubated with streptavidin-cychrome for 20 min and washed twice. Unless otherwise indicated, ˜25 ng grB-biotin or -OG was used to label cells. All steps of the assay were carried out at 4° C. to prevent intracellular uptake of grB. PBS/0.1% BSA buffer was used throughout the procedure. In some cases, results are presented as the relative MFI, which represents the MFI of the grB-labeled population minus the MFI of the unlabeled population.
(§1) GrB was treated for 1 hr at 37° C. in a phosphate-free (saline) or a high-phosphate (64.5 mM Na2HPO4.7H2O, 21 mM KH2PO4) buffer with calf intestinal alkaline phosphatase (1-10 U), 20 nM of the 37 kDa catalytic subunit of recombinant protein phosphatase-1 (Bagu et al, 1997), or with vehicle control. Cells were then incubated with the treated grB at 4° C. for 30-60 min. For the TUNEL or annexin V assays, cells were then washed twice before incubation at 37° C. with AD.
(§2) M6P and various other monosaccharides at different concentrations were added to cells for 15 min at 4° C. before the addition of labeled grB, or at room temperature before the addition of grB and AD.
(§3) GrB was incubated with sCI-MPR at various concentrations in PBS/0.1% BSA for 30 min at 4° C. Subsequently, cells were incubated with grB/sCI-MPR for 30-60 min at 4° C. and washed twice, before analysis of binding, or before the addition of AD for TUNEL and annexin V analysis.

Jurkat cells [2] = assay: TUNEL and annexin V apoptosis assays with grB and AD; format: cell-based, human; conditions: for percentage of TUNEL positive cells after incubation with grB and AD / percentage of annexin V positive cells after incubation with grB and AD: with 25 mM monosaccharide; for TUNEL positive cells: 3 hr with pretreated grB and AD
Experimental: as §1, §2, §3
For the in vitro killing assays, 10 pfu per cell of replication-deficient adenovirus (AD) were added subsequent to grB addition. Analysis of DNA fragmentation by TUNEL analysis has been described previously (Heibein et al., 1999). TUNEL materials (Roche Diagnostics) were used as per the manufacturer's instructions. Phosphatidylserine externalization was measured as previously described (Heibein et al., 1999) using annexin V-FITC (PharMingen). Percent specific TUNEL/annexin V positive cells was calculated as: [(% positive labeling cells with grB and AD-% positive labeling cells without grB and AD)/(100-% positive labeling cells without grB and AD)]×100.
Cells were resuspended at 10^6 cells/ml in 0.1% BSA/DMEM. Adenovirus (10 PFU/cell) and granzyme B (grB) were added directly to the cell suspension. Cells were incubated at 37° C. for 3 h. For staurosporine killing, cells were resuspended at 10^6 cells/ml in their normal growth medium and staurosporine (2.5 μM) was added directly to the cell suspension. Cells were incubated at 37° C. for 2, 4 and 8 h.
(§4) DNA fragmentation was monitored by flow cytometric analysis via the terminal deoxynucleotidyltransferase-mediated dUTP-biotin nick end labeling (TUNEL) method. Flow cytometric analysis was performed on a Becton Dickinson FACScanθ flow cytometer equipped with an argon-ion laser with 15 mW of excitation at 488 nm. Emission wavelengths were detected through the FL1 channel. Data were acquired on 10,000 cells per sample with light scatter signals at linear gain and fluorescence signals at logarithmic gain. Percent specific TUNEL positive cells was calculated as follows: [(% positive labeling cells with grB and AD−% positive labeling cells without grB and AD)/(AD−% positive labeling cells without grB and AD)]×100.
as §4, with “Phosphatidylserine externalization” for “DNA fragmentation”, “monitored using the ApoAlertθ annexin V apoptosis kit (Clontech) according to the protocol provided” for “monitored”, “by” for “by flow cytometric analysis via”, “manufacturer.” for “terminal deoxynucleotidyltransferase-mediated dUTP-biotin nick end labeling (TUNEL) method.”, “Annexin V” for “TUNEL”

[3] = target: cell surface MPR on Jurkat cells; assay: cell-based or functional assay
MPRs in all cell lines = assay: GrB-OG binding after M6P preincubation (Example 2, FIG. 8); conditions: 20 mM M6P, 37° C., 15 minutes prior to grB-OG
Experimental: Cells (1×10^5) were washed twice and resuspended in buffer before addition of grB-biotin or grB-OG in a final volume of 20 μl for a 30-60 min incubation and washed again twice. In the case of grB-biotin, cells were then incubated with streptavidin-cychrome for 20 min and washed twice. In order to measure cell surface binding, all steps of the binding assay were carried out at 4° C. to prevent intracellular uptake of grB. 0.1% BSA/PBS buffer was used throughout the procedure. All steps of the grB uptake assay were carried out at 37° C. Flow cytometric analysis was performed on a Becton Dickinson FACScanθ flow cytometer equipped with an argon-ion laser with 15 mW of excitation at 488 nm. Emission wavelengths were detected through the FL1 and FL3 channel for grB-OG and grB-biotin, respectively. Data were acquired on 10,000 cells per sample with light scatter signals at linear gain and fluorescence signals at logarithmic gain. Results are presented as the relative MFI, which represents the MFI of the grB-labeled population minus the MFI of the unlabeled population. M6P at 20 mM was added to cells for 15 min at 37° C. before the addition of labeled grB.

[4] = tested on: AD containing a β-galactosidase insert; assay: Infection of AD containing a β-galactosidase insert; format: cell-based
CI-MPR^+ cells = assay: GrB uptake assay (confocal microscopy, grB-OG at 37° C.); format: cell-based, murine L cells transfected with human CI-MPR; conditions: 20 mM M6P
Experimental: Cells on coverslips were incubated for 20 min at 37° C. with DMEM/0.1% BSA containing 25 ng grB-OG that was untreated, mock-treated, or alkaline phosphatase-treated as described above. For the M6P inhibition studies, cells were treated with 20 mM M6P in DMEM/0.1% BSA for 10 min at 37° C., before the addition of grB-OG, as above. Cells were then washed twice with PBS/0.1% BSA, fixed with 2% paraformaldehyde in PBS, and allowed to dry briefly before the coverslips were mounted and examined by confocal microscopy. Imaging was performed with a Zeiss Axiovertθ 100M LSM510 laser scan microscope and analyzed using LSM510 software.

[5] = tested on: MPR^− and CI-MPR^+ target cells; assay: CTL killing assays (^3H-thymidine release and ^51Cr-release); format: cell-based, murine; conditions: Mus musculus; CTL effectors with targets in the presence of M6P (data not shown); read-out: half-maximal inhibition of target cell DNA fragmentation
Experimental: The ^51Cr- (lysis) and ^3H-thymidine (DNA fragmentation) release assays have been previously described (Darmon et al., 1996). Target cells (1×10^4 cells/well for the ^51Cr-release assay and 5×10^4 cells/well for the ^3H-thymidine-release assay) were incubated with CTL at various E:T ratios (effector:target) in the presence or absence of blocking murine- (1 μg/ml) or human- (200 ng/ml) anti-Fas mAb. Data from one experiment represent the mean of data from triplicate samples. Typically, spontaneous ^51Cr-release and DNA fragmentation was less than 10% and 5%, respectively. Percent specific lysis and DNA fragmentation was calculated as: [(sample cpm−spontaneous cpm)/(total cpm−spontaneous cpm)]×100.

[6] = preincubation of grB with soluble CI-MPR, Jurkat cells (data not shown)

Compound: O=C[C@H](O)[C@@H](O)[C@H](O)[C@H](O)COP(=O)(O)O [D-glucose 6-phosphate, reference compound]
- concentrations at which inhibitory effect on grB binding was evident (Jurkat cells [1]; labeled grB, 4° C.): above 25 mM
- effect on grB binding (Jurkat cells [1]): slight inhibitory effect
- percentage of TUNEL positive cells after incubation with grB and AD (Jurkat cells [2]; 3 hr, Jurkat cells): 60%
- percentage of annexin V positive cells after incubation with grB and AD (Jurkat cells [2]; 3 hr, Jurkat cells): 41%

Compound: dephosphorylated human granzyme B (treated with calf intestinal alkaline phosphatase in phosphate-free buffer) (from UniProt P10144 21-247) (enzyme)
- TUNEL positive Jurkat cells after 3 hr with phosphatase-treated grB and AD [3]: < 5%

Compound: dephosphorylated grB: grB treated with calf intestinal alkaline phosphatase in phosphate-free buffer
- TUNEL positive cells (Jurkat cells [2]; Jurkat cells): Less than 5%

Compound: human granzyme B purified from the cytolytic granules of YT-Indy cells (from UniProt P10144 21-247) (enzyme)
- TUNEL positive Jurkat cells after 3 hr with grB (pretreated with alkaline phosphatase in phosphate-containing buffer) and AD [3]: 50%

Compound: O=C[C@@H](O)[C@@H](O)[C@H](O)[C@H](O)CO [D-mannose, reference compound]
- effect on grB binding (Jurkat cells [1]): no effect
- percentage of TUNEL positive cells after incubation with grB and AD (Jurkat cells [2]; 3 hr, Jurkat cells): 52%
- percentage of annexin V positive cells after incubation with grB and AD (Jurkat cells [2]; 3 hr, Jurkat cells): 32%

Compound: O=C[C@H](O)[C@@H](O)[C@H](O)[C@H](O)CO [D-glucose, reference compound]
- effect on grB binding (Jurkat cells [1]): no effect
- percentage of TUNEL positive cells after incubation with grB and AD (Jurkat cells [2]; 3 hr, Jurkat cells): 66%
- percentage of annexin V positive cells after incubation with grB and AD (Jurkat cells [2]; 3 hr, Jurkat cells): 40%

Compound: O=C[C@@H](O)[C@@H](O)[C@H](O)[C@H](O)COP(=O)(O)O [M6P, mannose 6-phosphate]
- binding of grB to the MPRs (MPRs in all cell lines): significantly reduced binding
- binding of grB to Jurkat cells (Jurkat cells [1]; M6P at 20 mM, 4° C.): considerably reduced binding
- IC50 (Jurkat cells [1]; labeled grB, 4° C., flow cytometry, Jurkat cells (FIG. 3A), read-out: half-maximal inhibition of binding of grB): 1 mM
- effect on infection of AD containing a β-galactosidase insert [4]: No effect
- concentration that markedly reduced in a dose-dependent manner the percentage of TUNEL or annexin V positive cells (Jurkat cells [2]; Jurkat cells, grB and AD, 3 hr): ≥ 200 µM
- uptake of grB (grB detected within the cells) (CI-MPR^+ cells): essentially no grB could be detected within the cells
- IC50 [5]: > 25 mM

Compound: soluble CI-MPR: Human soluble cation-independent mannose 6-phosphate receptor (Valenzano et al., 1995)
- concentration that markedly reduced in a dose-dependent manner the cell surface binding of grB (Jurkat cells [1]; [6]): ≥ 100 µg/mL
- concentration that markedly reduced in a dose-dependent manner grB/AD-mediated apoptosis (Jurkat cells [2]; [6]): ≥ 100 µg/mL

Compound: grB pretreated with alkaline phosphatase in phosphate-containing buffer: control grB treated with phosphatase in a phosphate-containing buffer to inhibit phosphatase activity
- TUNEL positive cells (Jurkat cells [2]; Jurkat cells): 50%
